Patent US10414811B2, “Protease-resistant lipidated GLP-1 analogs” (MEDIMMUNE LIMITED, priority 2015, dated 2019)
Read-outs that look alike come from different tables or passages of the source.

Legend:
Type in all cases: cell-based
[1] = target: T1, human GLP-1 receptor (GLP-1R) (Homo sapiens, UniProt P43220); experiment: cAMP assay, human GLP-1R cells
T1 construct: expressed in transfected cells
Method in brief: (§1)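 Peptide-stimulated cAMP measured by two-step HTRF after a 30 min room-temperature incubation with receptor-expressing cells (hGLP-1R, hGIPR at 1×10^5 cells/ml; hGCGR at 2×10^5 cells/ml). Duplicate dilutions; EC50 from 4-parameter logistic fit of % Delta F.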

[2] = target: T2, human glucagon receptor (GCGR) (Homo sapiens, UniProt P47871); experiment: cAMP assay, human GCGR cells
T2 construct: expressed in transfected cells
T2 sequence (P47871 26-477): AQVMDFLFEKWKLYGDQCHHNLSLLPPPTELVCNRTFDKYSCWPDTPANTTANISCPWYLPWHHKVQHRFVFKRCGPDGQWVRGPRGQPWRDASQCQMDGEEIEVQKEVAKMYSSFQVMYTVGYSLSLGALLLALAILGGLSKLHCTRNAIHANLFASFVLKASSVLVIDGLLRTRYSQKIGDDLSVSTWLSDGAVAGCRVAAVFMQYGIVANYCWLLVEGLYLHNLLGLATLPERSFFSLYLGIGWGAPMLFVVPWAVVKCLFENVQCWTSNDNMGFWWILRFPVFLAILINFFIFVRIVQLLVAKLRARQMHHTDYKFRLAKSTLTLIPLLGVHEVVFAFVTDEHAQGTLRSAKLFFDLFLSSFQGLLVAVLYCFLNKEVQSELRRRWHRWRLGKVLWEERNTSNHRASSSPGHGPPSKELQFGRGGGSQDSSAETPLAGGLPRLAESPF
Method in brief: as §1

[3] = target: T3, human glucose-dependent insulinotropic peptide receptor (GIPR) (Homo sapiens, UniProt P48546); experiment: cAMP assay, human GIPR cells
T3 construct: expressed in transfected cells
T3 sequence (P48546 22-466): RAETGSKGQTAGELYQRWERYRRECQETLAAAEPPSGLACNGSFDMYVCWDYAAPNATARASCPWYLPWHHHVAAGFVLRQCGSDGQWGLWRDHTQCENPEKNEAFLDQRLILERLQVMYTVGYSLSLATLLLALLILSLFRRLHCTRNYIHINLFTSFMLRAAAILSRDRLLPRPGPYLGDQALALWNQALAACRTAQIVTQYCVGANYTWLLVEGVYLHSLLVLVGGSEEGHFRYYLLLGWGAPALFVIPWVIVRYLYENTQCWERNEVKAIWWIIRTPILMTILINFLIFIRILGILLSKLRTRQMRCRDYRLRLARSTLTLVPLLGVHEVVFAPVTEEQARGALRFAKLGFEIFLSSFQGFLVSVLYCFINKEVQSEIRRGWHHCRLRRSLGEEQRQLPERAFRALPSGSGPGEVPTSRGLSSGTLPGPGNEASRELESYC
Method in brief: as §1

[4] = cAMP assay, first determination (n1), read-out: Primary assay EC50 GLP-1R n1
[5] = cAMP assay, second determination (n2), read-out: Primary assay EC50 GLP-1R n2
[6] = mean of n1 and n2, read-out: Mean pM GLP-1R
[7] = cAMP assay, first determination (n1), read-out: Primary assay EC50 Gluc-R (n1)
[8] = cAMP assay, second determination (n2), read-out: Primary assay EC50 Gluc-R (n2)
[9] = cAMP assay, first determination (n1), read-out: Primary assay EC50 GIP-R (n1)
[10] = cAMP assay, second determination (n2), read-out: Primary assay EC50 GIP-R (n2)
[11] = first run (n1), cAMP activity, read-out: Primary assay EC50 GLP-1R n1
[12] = second run (n2), cAMP activity, read-out: Primary assay EC50 GLP-1R n2
[13] = first run (n1), cAMP activity of substituted and mono-lipidated peptides, read-out: Primary assay EC50 Gluc-R
[14] = second run (n2), cAMP activity, read-out: Primary assay EC50 Gluc-R
[15] = first run (n1), cAMP activity, read-out: Primary assay EC50 GIP-R
[16] = second run (n2), cAMP activity, read-out: Primary assay EC50 GIP-R

T1 sequence (P43220 24-463): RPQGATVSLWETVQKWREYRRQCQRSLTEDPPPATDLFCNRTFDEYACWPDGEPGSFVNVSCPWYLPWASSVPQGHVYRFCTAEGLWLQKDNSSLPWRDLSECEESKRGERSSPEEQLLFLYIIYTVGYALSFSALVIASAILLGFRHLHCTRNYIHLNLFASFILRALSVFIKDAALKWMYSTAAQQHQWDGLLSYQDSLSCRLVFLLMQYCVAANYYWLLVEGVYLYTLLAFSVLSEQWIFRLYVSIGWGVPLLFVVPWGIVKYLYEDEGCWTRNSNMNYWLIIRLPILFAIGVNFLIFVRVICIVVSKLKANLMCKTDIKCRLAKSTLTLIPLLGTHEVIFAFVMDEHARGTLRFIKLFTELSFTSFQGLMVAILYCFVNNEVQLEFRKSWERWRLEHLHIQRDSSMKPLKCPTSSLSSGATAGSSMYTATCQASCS

SMILES | EC50 [1, 4] | EC50 [1, 5] | EC50 [1, 6] | EC50 [2, 7] | EC50 [2, 8] | EC50 [3, 9] | EC50 [3, 10] | EC50 [1, 11] | EC50 [1, 12] | EC50 [2, 13] | EC50 [2, 14] | EC50 [3, 15] | EC50 [3, 16]
CCCCCCCCCCCCCCCCCC(=O)NCCCCCC(=O)NCCCCCC(=O)NCCCC[C@H](NC(=O)[C@@H](NC(=O)[C@@H](NC(=O)[C@](C)(Cc1ccccc1)NC(=O)[C@H](C)NC(=O)[C@@H](NC(=O)[C@](C)(Cc1ccccc1)NC(=O)[C@H](CCC(=O)O)NC(=O)[C@](C)(CCCCN)NC(=O)[C@H](C)NC(=O)[C@H](C)NC(=O)[C@H](CCC(=O)O)NC(=O)CNC(=O)[C@H](CCC(=O)O)NC(=O)[C@H](CC(C)C)NC(=O)[C@](C)(Cc1ccccc1)NC(=O)[C@H](CO)NC(=O)[C@](C)(CO)NC(=O)[C@@H](NC(=O)[C@H](CC(=O)O)NC(=O)[C@H](CO)NC(=O)[C@@H](NC(=O)[C@](C)(Cc1ccccc1)NC(=O)[C@H](CO)NC(=O)CNC(=O)[C@H](CCC(=O)O)NC(=O)C(C)(C)NC(=O)[C@@H](N)Cc1c[nH]cn1)[C@@H](C)O)C(C)C)[C@@H](C)CC)C(C)C)C(C)C)C(=O)NCC(=O)NCC(N)=O [compound 186] | 130 pM | 50 pM | 87.5 pM | ≥ 27 nM | ≥ 27 nM | ≥ 27 nM | ≥ 27 nM |  |  |  |  |  | 
CCCCCCCCCCCCCCCCCC(=O)NCCCCCC(=O)NCCCCCC(=O)NCCCCCC(=O)NCCCC[C@H](NC(=O)[C@@H](NC(=O)[C@@H](NC(=O)[C@](C)(Cc1ccccc1)NC(=O)[C@H](C)NC(=O)[C@@H](NC(=O)[C@](C)(Cc1ccccc1)NC(=O)[C@H](CCC(=O)O)NC(=O)[C@](C)(CCCCN)NC(=O)[C@H](C)NC(=O)[C@H](C)NC(=O)[C@H](CCC(=O)O)NC(=O)CNC(=O)[C@H](CCC(=O)O)NC(=O)[C@H](CC(C)C)NC(=O)[C@](C)(Cc1ccccc1)NC(=O)[C@H](CO)NC(=O)[C@](C)(CO)NC(=O)[C@@H](NC(=O)[C@H](CC(=O)O)NC(=O)[C@H](CO)NC(=O)[C@@H](NC(=O)[C@](C)(Cc1ccccc1)NC(=O)[C@H](CO)NC(=O)CNC(=O)[C@H](CCC(=O)O)NC(=O)C(C)(C)NC(=O)[C@@H](N)Cc1c[nH]cn1)[C@@H](C)O)C(C)C)[C@@H](C)CC)C(C)C)C(C)C)C(=O)NCC(=O)NCC(N)=O [compound 187] | 64 pM | 31 pM | 47.4 pM | ≥ 26 nM | ≥ 26 nM | ≥ 26 nM | ≥ 26 nM |  |  |  |  |  | 
CC[C@H](C)[C@H](NC(=O)[C@](C)(Cc1ccccc1)NC(=O)[C@H](CCC(=O)O)NC(=O)[C@](C)(CCCCN)NC(=O)[C@H](C)NC(=O)[C@H](C)NC(=O)[C@H](CCC(=O)O)NC(=O)CNC(=O)[C@H](CCC(=O)O)NC(=O)[C@H](CC(C)C)NC(=O)[C@](C)(Cc1ccccc1)NC(=O)[C@H](CO)NC(=O)[C@](C)(CO)NC(=O)[C@@H](NC(=O)[C@H](CC(=O)O)NC(=O)[C@H](CO)NC(=O)[C@@H](NC(=O)[C@](C)(Cc1ccccc1)NC(=O)[C@H](CO)NC(=O)CNC(=O)[C@H](CCC(=O)O)NC(=O)C(C)(C)NC(=O)[C@@H](N)Cc1c[nH]cn1)[C@@H](C)O)C(C)C)C(=O)N[C@@H](C)C(=O)N[C@@](C)(Cc1ccccc1)C(=O)N[C@H](C(=O)N[C@H](C(=O)N[C@@H](CCCCNC(=O)CC[C@H](NC(=O)CCCCCCCCCCCCCCCCC(=O)O)C(=O)O)C(=O)NCC(=O)NCC(N)=O)C(C)C)C(C)C [compound 191] |  |  | 182 pM |  |  |  |  | 250 pM | 110 pM | ≥ 28 nM | ≥ 28 nM | ≥ 28 nM | ≥ 28 nM
CC[C@H](C)[C@H](NC(=O)[C@](C)(Cc1ccccc1)NC(=O)[C@H](CCC(=O)O)NC(=O)[C@](C)(CCCCN)NC(=O)[C@H](C)NC(=O)[C@H](C)NC(=O)[C@H](CCC(=O)O)NC(=O)CNC(=O)[C@H](CCC(=O)O)NC(=O)[C@H](CC(C)C)NC(=O)[C@](C)(Cc1ccccc1)NC(=O)[C@H](CO)NC(=O)[C@](C)(CO)NC(=O)[C@@H](NC(=O)[C@H](CC(=O)O)NC(=O)[C@H](CO)NC(=O)[C@@H](NC(=O)[C@](C)(Cc1ccccc1)NC(=O)[C@H](CO)NC(=O)CNC(=O)[C@H](CCC(=O)O)NC(=O)C(C)(C)NC(=O)[C@@H](N)Cc1c[nH]cn1)[C@@H](C)O)C(C)C)C(=O)N[C@@H](C)C(=O)N[C@@](C)(Cc1ccccc1)C(=O)N[C@H](C(=O)N[C@H](C(=O)N[C@@H](CCCCNC(=O)CC[C@H](NC(=O)CC[C@H](NC(=O)CCCCCCCCCCCCCCCCC(=O)O)C(=O)O)C(=O)O)C(=O)NCC(=O)NCC(N)=O)C(C)C)C(C)C [compound 192] |  |  | 113 pM |  |  |  |  | 170 pM | 60 pM | ≥ 27 nM |  | ≥ 27 nM | 
CC[C@H](C)[C@H](NC(=O)[C@](C)(Cc1ccccc1)NC(=O)[C@H](CCC(=O)O)NC(=O)[C@](C)(CCCCN)NC(=O)[C@H](C)NC(=O)[C@H](C)NC(=O)[C@H](CCC(=O)O)NC(=O)CNC(=O)[C@H](CCC(=O)O)NC(=O)[C@H](CC(C)C)NC(=O)[C@](C)(Cc1ccccc1)NC(=O)[C@H](CO)NC(=O)[C@](C)(CO)NC(=O)[C@@H](NC(=O)[C@H](CC(=O)O)NC(=O)[C@H](CO)NC(=O)[C@@H](NC(=O)[C@](C)(Cc1ccccc1)NC(=O)[C@H](CO)NC(=O)CNC(=O)[C@H](CCC(=O)O)NC(=O)C(C)(C)NC(=O)[C@@H](N)Cc1c[nH]cn1)[C@@H](C)O)C(C)C)C(=O)N[C@@H](C)C(=O)N[C@@](C)(Cc1ccccc1)C(=O)N[C@H](C(=O)N[C@H](C(=O)N[C@@H](CCCCNC(=O)CC[C@H](NC(=O)CC[C@H](NC(=O)CC[C@H](NC(=O)CCCCCCCCCCCCCCCCC(=O)O)C(=O)O)C(=O)O)C(=O)O)C(=O)NCC(=O)NCC(N)=O)C(C)C)C(C)C [compound 193] |  |  | 213 pM |  |  |  |  | 330 pM | 95 pM | ≥ 26 nM | ≥ 26 nM | ≥ 26 nM | ≥ 26 nM
CC[C@H](C)[C@H](NC(=O)[C@](C)(Cc1ccccc1)NC(=O)[C@H](CCC(=O)O)NC(=O)[C@](C)(CCCCN)NC(=O)[C@H](C)NC(=O)[C@H](C)NC(=O)[C@H](CCC(=O)O)NC(=O)CNC(=O)[C@H](CCC(=O)O)NC(=O)[C@H](CC(C)C)NC(=O)[C@](C)(Cc1ccccc1)NC(=O)[C@H](CO)NC(=O)[C@](C)(CO)NC(=O)[C@@H](NC(=O)[C@H](CC(=O)O)NC(=O)[C@H](CO)NC(=O)[C@@H](NC(=O)[C@](C)(Cc1ccccc1)NC(=O)[C@H](CO)NC(=O)CNC(=O)[C@H](CCC(=O)O)NC(=O)C(C)(C)NC(=O)[C@@H](N)Cc1c[nH]cn1)[C@@H](C)O)C(C)C)C(=O)N[C@@H](C)C(=O)N[C@@](C)(Cc1ccccc1)C(=O)N[C@H](C(=O)N[C@H](C(=O)N[C@@H](CCCCNC(=O)CCCCCNC(=O)CCCCCCCCCCCCCCCCC(=O)O)C(=O)NCC(=O)NCC(N)=O)C(C)C)C(C)C [compound 194] |  |  | 154 pM |  |  |  |  | 240 pM | 68 pM | ≥ 28 nM | ≥ 28 nM | ≥ 28 nM | ≥ 28 nM
CC[C@H](C)[C@H](NC(=O)[C@](C)(Cc1ccccc1)NC(=O)[C@H](CCC(=O)O)NC(=O)[C@](C)(CCCCN)NC(=O)[C@H](C)NC(=O)[C@H](C)NC(=O)[C@H](CCC(=O)O)NC(=O)CNC(=O)[C@H](CCC(=O)O)NC(=O)[C@H](CC(C)C)NC(=O)[C@](C)(Cc1ccccc1)NC(=O)[C@H](CO)NC(=O)[C@](C)(CO)NC(=O)[C@@H](NC(=O)[C@H](CC(=O)O)NC(=O)[C@H](CO)NC(=O)[C@@H](NC(=O)[C@](C)(Cc1ccccc1)NC(=O)[C@H](CO)NC(=O)CNC(=O)[C@H](CCC(=O)O)NC(=O)C(C)(C)NC(=O)[C@@H](N)Cc1c[nH]cn1)[C@@H](C)O)C(C)C)C(=O)N[C@@H](C)C(=O)N[C@@](C)(Cc1ccccc1)C(=O)N[C@H](C(=O)N[C@H](C(=O)N[C@@H](CCCCNC(=O)CCCCCNC(=O)CCCCCNC(=O)CCCCCCCCCCCCCCCCC(=O)O)C(=O)NCC(=O)NCC(N)=O)C(C)C)C(C)C [compound 195] |  |  | 107 pM |  |  |  |  | 170 pM | 46 pM | ≥ 27 nM | ≥ 27 nM | ≥ 27 nM | ≥ 27 nM
